Patent US20260306460A1, “COMPOSITION FOR REMOVING AND INHIBITING SENESCENT CELLS, AND USES THEREOF” (LIFECEUTIX CO., LTD., priority 2023, published 2026)
Read-outs that look alike come from different tables or passages of the source.

Key:
[1] = tested on: HMGN1 secreted from senescent A549 cells; assay: HMGN1 secretion (ELISA) from senescent A549 cancer cells, Example 12; type: cell-based, human; conditions: senescent untreated = 100%; 30 μM; 90 μM for LX-305, 905, 1302, 1601, 1603, 2003, 2702, 2901, 3106; 270 μM for LX-1103, 2005, 2007;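 further: A549 cells made senescent by doxorubicin exposure, with DMSO-treated cells serving as the non-senescent control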
Procedure: Cells were treated with doxorubicin or control (DMSO) and cultured.

senescent foreskin cells = assay: Survival of senescent human cells treated with supernatant (secreted fluid) from death-induced cells, Example 13; type: cell-based; conditions: senescent treated cells; for viability at 30 µM: Homo sapiens, 72 h
Procedure: After 3 days, cell viability was measured using CellTiter-Glo Luminescent Cell Viability Assay (Promega) or light microscopy.
During this additional culture, by checking with an optical microscope, etc., the medium supernatants containing secreted fluid from normally proliferating and senescent cells in which cell death was induced were obtained. The obtained medium supernatant was replaced with the medium of normally proliferating and senescent cells, respectively, and cell survival rate was measured after 3 days.

[2] = tested on: naturally aged C57BL6J mice; assay: Skin aging (dermal thickness, COL1A1 and SDF1 mRNA, hair loss) in naturally aged mice, Example 21-10, Table 25; type: in vivo, mouse; conditions: for Dermal Thickness (μm): mouse, in vivo
Procedure: (§1) 22-month-old female C57BL6J mice (KRIBB Laboratory Animal Resource Center) were acclimated to the experimental environment for one week, after which the aged mice were randomly assigned to experimental and control groups. Eight-week-old, non-aged mice served as controls. LX-403 was mixed in a 10% ethanol solution of PEG400 and administered orally at a concentration of 25 mg/kg daily for 21 days, or administered to the skin, joints, or eyes at a concentration of 1 μM. LX-1801 was mixed in distilled water with 4% DMSO, 30% PEG300, and 5% Tween80 and administered to the skin, joints, or eyes at a concentration of 0.4 μM daily for 21 days. LX-2001 was mixed in PBS and administered to the skin, joints, or eyes at a concentration of […] daily for 21 days. LX-2002 was mixed in distilled water with 4% DMSO, 30% PEG300, and 5% Tween80 and administered to the skin, joints, or eyes at a concentration of 2 μM daily for 21 days. […] LX-2005 was mixed in distilled water with 4% DMSO, 30% PEG300, and 5% Tween80 and administered to the skin, joints, or eyes at a concentration of 90 μM daily for 21 days. LX-2007 was mixed in distilled water with 4% DMSO, 30% PEG300, and 5% Tween80 and administered to the skin, joints, or eyes at a concentration of 90 μM daily for 21 days. […] LX-3002 was mixed in distilled water with 4% DMSO, 30% PEG300, and 5% Tween80 and administered orally at a concentration of 10 mg/kg daily for 21 days. […] LX-5411 was mixed in 5% PBS and administered orally at a concentration of 10 mg/kg daily for 21 days or administered to the skin, joints, or eyes at a concentration of 3 μM. LX-5701 was mixed in PBS and administered orally at a concentration of 360 mg/kg daily for 21 days. LX-6807 was mixed in saline and administered intraperitoneally at a concentration of 1 mg/kg daily for 21 days. LX-2101 or LX-2102 was mixed in PBS solution with 5% DMSO and administered intraperitoneally at a concentration of 20 mg/kg or 10 mg/kg, respectively, daily for 21 days. The control group received only the solution in the same volume. After the end of drug administration, the methods described in each example below were performed.
Frozen sections of skin tissue were stained with Hematoxylin/Eosin (H/E), and the dermal thickness was observed under an optical microscope. Furthermore, the mRNA levels of collagen (COL1A1), a skin component, and SDF1, which suppresses age-related pigmentation, were measured using qRT-PCR as described in Example 7-2 of WO2023-085787 A1. […] Furthermore, biweekly examinations were performed to assess the onset of hair loss due to aging.

[3] = tested on: naturally aged C57BL6J mice; type: in vivo, mouse
[4] = tested on: naturally aged C57BL6J mice; assay: Hot plate joint pain test in naturally aged mice, Example 21-12, Table 27; type: in vivo, mouse; conditions: hot plate 55° C., untreated aged 6.9 (±1.8)
Procedure: as §1
RNA was extracted from joint tissue as described in Example 7-2 of WO2023-085787 A1, and qRT-PCR was performed using the synthesized cDNA. […] To analyze joint pain due to joint aging, hotplate analysis was performed. Specifically, thermal pain thresholds were measured using a hot plate. After acclimating mice to a temperature of 30° C. for 10 minutes, the time required for hind paw licking or jumping responses to occur at 55° C. was measured. To prevent tissue damage, the response was measured for less than 30 seconds, and the average value was used from five measurements.

[5] = tested on: naturally aged C57BL6J mice; assay: Cataract incidence in naturally aged mice, Example 21-15, Table 30; type: in vivo, mouse; conditions: orally twice a week, 360 mg/kg, until death, untreated aged 83
Procedure: as §1
Cataracts, which occur with age, are a disease that causes visual impairment due to clouding of the lens and are a major cause of blindness. The mice of Example 21-1 were treated with the test compound mixed in PBS orally twice a week at a concentration of 360 mg/kg. Cataract development was assessed biweekly until death.

[6] = tested on: NaIO3-induced retinal degenerative C57BL6J mice; assay: NaIO3 retinal degeneration in mice (p16 mRNA, outer nuclear layer thickness), Example 29, Table 53; type: in vivo, mouse; conditions: daily for 21 days; for Outer nuclear layer thickness: untreated 27.4 (±1.3); for p16 mRNA: untreated 100%
Procedure: Then, retinal degenerative diseases were induced for more than 7 days by intravenous administration of 20 mg/kg of NaIO3, an oxidizing agent that induces retinal pigment epithelial cell death and retinal degeneration. Mice with retinal degenerative diseases were randomly assigned to experimental and control groups. […] The control group received only the solution in the same volume. […] In addition, frozen sections of the other eye tissue were stained with H/E (Hematoxylin/Eosin), and the thickness of the outer nuclear layer (ORL) was observed under an optical microscope. […] The mRNA amount after aging induction was calculated as 100% and compared with the mRNA amount of p16 after treatment with the test compound.

[7] = Table 8, supernatant from dying senescent cells treated at 30, 90 or 270 μM (as Example 11)
[8] = naturally aged mice, untreated aged = 100
[9] = skin, naturally aged mice, untreated aged = 1
[10] = after 7 days, 6 mm punch dorsal skin wounds, naturally aged mice, untreated aged 3.2 (±0.4)

SMILES | HMGN1 [1] [%] | Survival (senescent foreskin cells; [7]) | Dermal Thickness (μm) [2] | Relative area of hair loss (%) [2, 8] | Col1a1 mRNA (Fold) [2, 9] | SDF1 mRNA (fold) [2, 9] | Wound size (mm) [3, 10] | Response time (s) [4] | Cataract incidence (%) [5] [%] | Outer nuclear layer thickness [6] | p16 mRNA [6] | viability at 30 µM (senescent foreskin cells; supernatant from death-induced proliferating cells, 3 days) [%] | viability at 30 µM (senescent foreskin cells; supernatant from death-induced senescent cells, 3 days) [%] | Survival (senescent foreskin cells; supernatant from No Cells, 3 days) | Col1a1 mRNA (Fold) ([2]; topical) | Relative area of hair loss (%) ([2]; topical) | SDF1 mRNA (fold) ([2]; topical) | wound/damage healing improvement ([3]; mouse, in vivo) | Wound size (mm) ([3]; mouse, in vivo)
O=C(C(C[N+](=O)[O-])=NO)N1CCN(C(c2ccc(Cl)cc2)c2ccc(Cl)cc2)CC1 [LX-403] | 320 | 45.1 | 232 (±16.2) μm | 69 (±2.5) % | 2.4 (±0.2) Fold | 1.8 (±0.1) fold | 1.9 (±0.2) mm | 5.6 (±0.7) s | 57 | 40.1 (±1.9) μm | 34 (±2.2) % | – | – | – | – | – | – | – | –
COC(=O)c1ccc([C@H]2c3[nH]c4ccccc4c3C[C@H](C(=O)OC)N2C(=O)CCl)cc1 [LX-405] | 310 | – | – | – | – | – | – | – | – | – | – | 41.3 | 52.7 | 102.8 (±4.6) % | – | – | – | – | –
S=C(N/N=C1\CCCc2cccnc21)N1CCN(c2ccccn2)CC1 [LX-801] | 329 | 52.7 | – | – | – | – | – | – | – | – | – | – | – | – | – | – | – | – | –
C[C@@H]1CC[C@@]23C[C@H](O)C(=O)[C@@]2(O)[C@]1(C)[C@H](OC(=O)CCl)C[C@@H](C1=CCn2c(=O)n(-c4ccccc4)c(=O)n2C1)[C@@H]3C [LX-1801, (2S,3aS,4S,5R,7R,8S,8aS,11R)-7-(1,3-Dioxo-2-phenyl-2,3,5,8-tetrahydro-1H-[1,2,4]triazolo[1,2-a]pyridazin-6-yl)-2,3a-dihydroxy-4,8,11-trimethyl-3-oxooctahydro-1H-4,8a-propanoazulen-5-yl 2-Chloroacetate] | 295 | 41.6 | 222 (±37.4) μm | 82 (±6.6) % | 2.0 (±0.2) Fold | 2.1 (±0.2) fold | 2.5 (±0.6) mm | 4.9 (±1.1) s | 68 | 32.7 (±2.6) μm | 42 (±4.4) % | – | – | – | – | – | – | – | –
C[C@H]1[C@H](C)CC[C@]2(C(=O)O)CC[C@]3(C)C(=CC[C@@H]4[C@@]5(C)CC[C@H](O)C(C)(C)[C@@H]5CC[C@]43C)[C@H]12 [LX-2001, Ursolic acid] | 328 | 57.8 | 241 (±46.6) μm | 73 (±8.3) % | 2.2 (±0.4) Fold | 1.6 (±0.2) fold | 2.5 (±0.5) mm | 5.0 (±0.9) s | 75 | 34.1 (±5.1) μm | 61 (±4.1) % | – | – | – | – | – | – | – | –
C[C@H]1[C@H](C)CC[C@]2(C(=O)O)CC[C@]3(C)C(=CC[C@@H]4[C@@]5(C)C[C@@H](O)[C@H](O)C(C)(C)[C@@H]5CC[C@]43C)[C@H]12 [LX-2002, Corosolic acid] | 314 | 58.3 | 253 (±40.1) μm | 75 (±8.3) % | 1.9 (±0.3) Fold | 1.4 (±0.1) fold | 2.7 (±0.4) mm | 5.3 (±0.6) s | 71 | 30.1 (±7.8) μm | 60 (±3.8) % | – | – | – | – | – | – | – | –
CC1(C)CC[C@]2(C(=O)O)CC[C@]3(C)C(=CC[C@@H]4[C@@]5(C)CC[C@H](O)C(C)(C)[C@@H]5CC[C@]43C)[C@@H]2C1 [LX-2003, Oleanolic acid] | 218 | 64.2 | 235 (±56.3) μm | 71 (±2.2) % | 2.3 (±0.4) Fold | 1.7 (±0.1) fold | 2.6 (±0.6) mm | 5.1 (±0.7) s | 69 | 31.2 (±8.7) μm | 52 (±6.3) % | – | – | – | – | – | – | – | –
COC(=O)[C@]12CCC(C)(C)C[C@H]1[C@H]1C(=O)C=C3[C@@]4(C)C=C(C#N)C(=O)C(C)(C)[C@@H]4CC[C@@]3(C)[C@]1(C)CC2 [LX-2102, Bardoxolone methyl] | 233 | 46.3 | 234 (±9.6) μm | – | – | – | – | – | – | – | – | – | – | – | 2.0 (±0.2) Fold | 89 (±7.5) % | 1.3 (±0.1) fold | damage treatment and recovery | –
CCCC\C=C/C=C/C=C\CCCCCCCC(=O)O [LX-2707, Punicic acid] | – | – | 237 (±19.4) μm | – | – | – | 2.7 (±0.3) mm | 5.4 (±0.6) s | 48 | 31.8 (±1.7) μm | 76 (±5.4) % | – | – | – | – | – | – | – | –
COC(=O)[C@H]1Cc2c([nH]c3ccccc23)[C@H](c2ccc(S(C)(=O)=O)cc2)N1C(=O)CCl [LX-5401, methyl (1S,3R)-2-(2-chloroacetyl)-1-(4-(methylsulfonyl)phenyl)-2,3,4,9-tetrahydro-1H-pyrido[3,4-b]indole-3-carboxylate] | – | – | 222 (±26.3) μm | – | – | – | 2.3 (±0.3) mm | 5.9 (±0.2) s | 69 | – | – | – | – | – | – | – | – | – | –
C#CC(=O)N1[C@@H](CCCC)Cc2cc(OC)ccc2[C@@H]1c1ccc(NC23CC4CC(CC(C4)C2)C3)cc1 [LX-5411] | – | – | 231 (±27.1) μm | 64 (±4.8) % | 2.7 (±0.1) Fold | 2.3 (±0.2) fold | 1.6 (±0.1) mm | 4.7 (±0.4) s | 61 | 43.7 (±4.2) μm | 43 (±2.5) % | – | – | – | – | – | – | – | –
O=C1C2CCN(CC2)C1CNC(=O)C(F)(F)F (stereo not drawn) [LX-5701] | – | – | 239 (±16.4) μm | 71 (±8.4) % | 1.9 (±0.1) Fold | 1.7 (±0.3) fold | – | 4.6 (±1.3) s | 64 | 52.7 (±3.2) μm | 67 (±7.3) % | – | – | – | – | – | – | – | 1.9 (±0.2) mm
Cc1cccc([C@H](C)c2cnc[nH]2)c1C [LX-6807, Dexmedetomidine] | – | – | 267 (±22.4) μm | 72 (±3.8) % | 3.2 (±0.2) Fold | 2.1 (±0.2) fold | 1.7 (±0.1) mm | 4.8 (±0.4) s | 61 | 50.8 (±3.2) μm | 64 (±4.4) % | – | – | – | – | – | – | – | –
